Test results: PubChem BioAssay (NCI)
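Grown in 96-well plates, cells were treated for 48 hours with each compound at five concentrations. Insufficient inhibition: endpoint recorded as highest concentration tested. GI50: concentration for 50% inhibition of growth. The concentration for full growth arrest is given as TGI.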

How the values were obtained:
Assay in all cases: NCI-60 cell line screen, 48 h
MALME-3M melanoma = tested on: MALME-3M melanoma
HOP-62 NSCLC = tested on: HOP-62 NSCLC
HCT-116 colon = tested on: HCT-116 colon
A498 renal = tested on: A498 renal
CAKI-1 renal = tested on: CAKI-1 renal
OVCAR-3 ovarian = tested on: OVCAR-3 ovarian
BT-549 breast = tested on: BT-549 breast
SK-OV-3 ovarian = tested on: SK-OV-3 ovarian
SK-MEL-2 melanoma = tested on: SK-MEL-2 melanoma
T-47D breast = tested on: T-47D breast

Compound | GI50 (MALME-3M melanoma) [µM] | TGI (MALME-3M melanoma) [µM] | GI50 (HOP-62 NSCLC) [µM] | TGI (HOP-62 NSCLC) [µM] | GI50 (HCT-116 colon) [µM] | TGI (HCT-116 colon) [µM] | GI50 (A498 renal) [µM] | TGI (A498 renal) [µM] | GI50 (CAKI-1 renal) [µM] | TGI (CAKI-1 renal) [µM] | GI50 (OVCAR-3 ovarian) [nM] | TGI (OVCAR-3 ovarian) [µM] | GI50 (BT-549 breast) [µM] | TGI (BT-549 breast) [µM] | GI50 (SK-OV-3 ovarian) [µM] | TGI (SK-OV-3 ovarian) [µM] | GI50 (SK-MEL-2 melanoma) [µM] | TGI (SK-MEL-2 melanoma) [µM] | GI50 (T-47D breast) [µM] | TGI (T-47D breast) [µM]
COc1ccc2nc3cc(Cl)ccc3c(Nc3cc(C(C)C)c(O)cc3C)c2c1 | 1.79 | 4.4 | 1.91 | 3.48 | 1.59 | 2.95 | 2.05 | 6.58 | 2.1 | 5.42 | 1690 | 3.26 | 0.588 | 2.89 | 2.39 | 6.88 | 1.85 | 3.75 | 1.92 | 4.68
O=C1NC(=O)C(c2c[nH]c3ccccc23)=C1c1ccccc1 | > 25 | > 25 | > 25 | > 25 | > 25 | > 25 | > 17.6 | > 25 | > 25 | > 25 | > 25000 | > 25 | > 25 | > 25 | > 25 | > 25 | > 25 | > 25 | > 25 | > 25
COc1cccc(/C=C\c2ccnc3ccccc23)c1 |  | > 10 |  | > 10 |  | > 10 |  | > 10 |  | > 10 |  | > 10 |  | > 10 |  | > 10 |  | > 10 |  | > 10
N=C1/C(=C2\Nc3ccccc3S2)CC(=O)N1c1ccc(SC(F)F)cc1 | > 100 | > 100 | 1.49 | 14.7 | 8.89 | > 100 |  |  | 8.7 | > 100 | 17100 | > 100 | > 100 | > 100 | 8.6 | > 100 | 27.3 | > 100 | 27.8 | > 100
COc1ccc2c(c1)C(=O)c1c-2c(N2CCN(C(=O)CCNCCNCCO)CC2)nc2ccccc12 | 26.6 | 58 |  |  | 2.36 | 5.52 | 18.7 | 34.4 | 24 | 53.3 | 20600 | 43.2 | 7.14 | 21.2 | 15.9 | 30.9 | 24.1 | 52.6 | 13.4 | 29.8
COC1=CC2CCN3Cc4cc5c(cc4C(C1O)C23)OCC5 (configuration not stated) |  |  | 3.61 | > 61.4 | 1.68 | > 49.4 | 17.7 | 98.8 | 2.49 | 8.36 | 1780 | 5.62 | 3.94 | > 47 | 1.84 | > 100 | 14.4 | > 43 | 1.33 | 6.51
Cc1cc(C#Cc2ccccc2)ccc1-n1c(/C=C/c2cc(O)ccc2O)nc2ccccc2c1=O | 1.5 | 3.72 | 1.71 | 3.79 | 1.46 | 2.77 | 0.37 | 2.63 | 2.15 | 7.24 | 1490 | 2.81 |  |  | 1.83 | 4.61 | 1.4 | 3.05 | 1.14 | 3.67
Nc1ccc(C(=O)Nc2ccccc2N)cc1 |  | 30.3 |  | > 100 |  | > 90.7 |  | > 100 |  | > 100 |  | > 100 |  | > 100 |  | > 100 |  | > 86.1 |  | 
Cc1cc(N)cc(C)c1-c1c(Br)cc(N)cc1Br | 10.5 | 54.3 |  |  | 3.68 | 13.1 | 1.82 | 7.54 | 3.07 | 31.2 | 2630 | 6.3 | 7.51 | 30.4 | 3.62 | 12.2 | 4.14 | 21.1 | 4.11 | 20.3
CCCc1n(Cc2ccc3ccccc3n2)cc[n+]1Cc1ccc2ccccc2n1 | 1.17 | 7.51 | 4.17 | 17.9 | 2.81 | 13.1 | 7.21 | 35 |  |  | 705 | 10.6 | 1.3 | 8 | 2.44 | 9.68 | 1.52 | 5.68 | 0.416 | 5.03
O=C(CSc1ncc(-c2ccccc2)n1-c1ccccc1)Nc1ccc(-c2nc3ccccc3s2)cc1 |  |  | 5.68 | > 100 | 3.68 | > 100 | 39.7 | > 100 | 4.21 | > 100 | 7220 | > 100 |  |  | 55.7 | > 100 | 12 | 73.2 | 4.51 | > 100
N#Cc1c(N)c(C#N)c2c(c1-c1ccc(Cl)cc1)COc1ccc(F)cc1-2 |  |  |  |  |  |  | 7.89 | 28 | 21 | > 50 | 16200 | > 50 |  |  | > 50 | > 50 | > 50 | > 50 | > 50 | > 50
COc1cc(-c2nn(-c3cccc(NC(=O)CCN4CCN(C)CC4)c3)cc2-c2ccncc2)ccc1Cl | 0.847 | 2.36 | 1.36 | 4.38 | 0.904 | 4.17 | 0.412 | 3.23 |  |  | 363 | 1.75 | 7.26 | 20.4 | 1.81 | 7.34 | 0.889 | 2.55 | 2.34 | 10.1
CC(C)COC(c1ccc2c(c1)OCO2)C(C)Br (configuration not stated) |  | 36.1 |  | 77.9 |  | 38.7 |  | > 100 |  | > 100 |  | 34.8 |  | > 100 |  | 80 |  | 44.3 |  | 
CC(=O)C(C=O)C(C)=O.CC(=O)CC(C)=O.CC(=O)CC(C)=O.[Ru] | 24.6 | 96.9 | 32.4 | > 100 | 21.8 | > 100 |  |  | 27.5 | 72.4 | 2150 | 26.3 | 7.27 | 69.5 | 76.8 | > 100 | 24.3 | > 100 | 32.7 | > 100
Fc1ccc(-c2nn3c(COc4ccc(Cl)cc4Cl)nnc3s2)cc1Oc1ccccc1 | 17 | 35.2 | 11.5 | 23.7 | 13.2 | 25.9 | 20.2 | 40.6 | 12.8 | 25.4 | 705 | 13.3 | 19.3 | 43.8 |  |  |  |  | 11.6 | 25.7
COc1cc(Cn2c(SCC(=O)Nc3ccc(Cl)cc3)nc3ccccc3c2=O)cc(OC)c1OC |  |  | 3.1 | 14.5 | 4.04 | 14.9 | 2.42 | 12.2 | 11.3 | 58.1 | 7860 | 31 | 6.42 | 23.8 | 4.2 | 16.7 | 15.2 | 32.9 | 2.16 | 8.21
Cc1ccc(S(=O)(=O)CC2(Br)CCc3ccccc3C2=O)cc1 (configuration not stated) |  | 68.6 |  | > 100 |  | > 100 |  | 95 |  | 53.4 |  | > 100 |  | 41.1 |  | > 100 |  | 44.9 |  | 
CC1(C)OC(=O)C(=Cc2ccc([N+](=O)[O-])s2)C(=O)O1 |  | 34.2 |  | 35.1 |  | 9.84 |  | 54.7 |  | 29.5 |  | 23.2 |  | 26.8 |  | 65.3 |  |  |  | 38
CCCCCCSc1nc(COC(=O)NC)c(COC(=O)NC)n1C |  |  |  | > 100 |  | > 100 |  | > 100 |  | > 100 |  | > 100 |  | > 100 |  | > 100 |  | > 100 |  | > 100
CNCCN(C)Cc1cn[nH]c1-c1ccc(OC2CC(OCCC3CCOCC3)C2)cc1 (configuration not stated) | 28.4 | > 100 | 99.1 | > 100 | > 67.9 | > 100 | > 57.1 | > 100 |  |  | > 80000 | > 100 | 54.2 | > 100 | > 100 | > 100 | > 100 | > 100 | 27.8 | > 100
O=C(O)c1cn(C2CC2)c2cc(N3CCN(Cc4ccc5ccccc5c4O)CC3)c(F)cc2c1=O |  |  | 2.45 | 9.36 |  |  | 2.09 | 4.67 |  |  |  |  |  |  | 3.68 | > 100 | 5.11 | > 100 | > 100 | > 100
Cc1c(O)c(Br)c(C)c(O)c1Br (tested in a mixture with another compound) |  | 3.55 |  | 40.3 |  |  |  | 29 |  | 3.67 |  |  |  | 9.7 |  | 29.4 |  | 10.7 |  | 5.54
